{"source": "patent US20060058243A1", "about": "“Methods and compositions for treating diabetes mellitis” (priority 2002, published 2006)", "key": {"[1]": {"tested_on": "ob/ob mice", "test": "Plasma insulin levels in ob/ob mice after intraperitoneal injection", "format": "in vivo", "conditions": "single intraperitoneal injection", "experimental": "Diabetic and obese ob/ob mice were injected intraperitoneally with either water or α-PGG. Plasma from each mouse was isolated at various times post injection and was measured for insulin levels."}, "[2]": {"tested_on": "3T3-L1 preadipocytes", "test": "Adipocyte differentiation (AD) of preadipocytes, MDI induction, Oil Red O staining and glucose uptake", "format": "cell-based", "conditions": "about 10 days, 30 μM PGG, FIG. 8", "experimental": "(§1) PGG, either as a mixture or as single isomer (α or β), is added to either adipocytes (A) or preadipocytes (B). GTS activity (A) and AD activity (B) of PGG are measured by ^3H-glucose uptake. GLUT4 is not expressed in preadipocytes, so glucose uptake can be used as an indirect measurement of adipocyte differentiation.\nTen days after induction, the cells were stained with Oil Red 0 and photographed at magnification X200. Only those cells that contain fat vesicles (triglyceride) can be stained.\nAfter about 10 days MDI induces differentiation, which is clearly visible as the change from fibroblast-like preadipcytes to round-shaped, fat vesicle-containing adipocytes.\n3T3-L1 adipocytes were purchased from ATCC, and maintained and passed as preadipocytes in DMEM supplemented with 10% calf serum in a 37° C. incubator with 10% CO2 as required by the cells. To test the effect of PGG on adipogenesis, the preadipocytes were incubated either with a differentiation-induction cocktail comprised of 3-isobutyl-1-methylxanthine, […], a cocktail comprised of 3-isobutyl-1-methylxanthine, dexamethasone (MD) and PGG; or with MDI plus PGG.\nIn order to study the mechanism by which PGG inhibits 3T3-L1 preadipocyte differentiation, we used gene expression studies. This strategy allows us to determine whether PGG specifically acts on genes that participate in the differentiation process. […] After about 10 days MDI induces differentiation, which is clearly visible as the change from fibroblast-like preadipcytes to round-shaped, fat vesicle-containing adipocytes (FIG. 8 middle)."}, "[3]": {"tested_on": "db/db mice", "test": "Blood glucose in fasting diabetic db/db mice after oral dose", "format": "in vivo", "conditions": "single oral dose 25 mg/kg body weight, versus vehicle, P<0.01, FIG. 11A", "experimental": "(§2) FIG. 11. Effect of PGG on blood glucose levels in db/db and ob/ob mice. Various doses of α-PGG were orally delivered without glucose to db/db mice(A) or with glucose to ob/ob mice (B) mice. At different times post the delivery, glucose was determined in samples from tail blood.\nMale db/db (leptin receptor deficient) mice of 8 weeks of age may be used to determine in vivo dosages for simulating glucose uptake The mice are divided into three to four groups depending upon how many dosages are analyzed. Ten μl of a test solution with pre-determined concentrations of the test gallotannin composition is orally administered to the test mice. The negative control mice receive the same amount of water. After the administration, blood is collected from the mouse tail at various times post oral administration. The blood glucose level of a mouse at a given time post administration is measured by applying six μl of blood on a One Touch Basic Complete Diabetes Monitoring System (from Lifescan). The effective dosage range and the optimal dosage can be determined by comparison of the reduction of blood glucose levels by different dosages relative to the glucose level of the negative (water) control group.\nThe reduction of the glucose level is about 15-20% depending on the time post α-pGG administration (P<0.01, FIG. 11A)."}, "[4]": {"tested_on": "3T3-L1 preadipocytes", "test": "Clonal expansion / cell proliferation assay by LDH activity", "format": "cell-based", "experimental": "Preadipocytes were induced to undergo clonal expansion by MDI, or α-PGG, or β-PGG in the presence of MDI. 24 or 48 hrs after induction, the media was removed and the cells were lysed. The […] (LDH) activity of the cell lysates was measured by LDH kit. Cell growth media were also collected and their LDH activity from dead cells was also measured (not shown on this graph). LDH activity is a constant per cell in a given cell type, the LDH activity measured is proportional to the number of cells in the samples.\nA cell proliferation assay was used to determine if PGG inhibits adipocyte differentiation by blocking clonal expansion. […] The basis for the difference between the anomers in clonal expansion and differentiation is not known."}, "[5]": {"tested_on": "3T3-L1 adipocytes", "test": "Glucose transport stimulatory (GTS) activity, 2-deoxy-D-[3H]glucose uptake", "format": "cell-based", "conditions": "3T3-L1 adipocytes, FIG. 2", "experimental": "as §1\nGlucose uptake activity in cells may be analyzed by measuring the uptake of 2-deoxy-D-[^3H] glucose using a standard assay. Confluent 3T3-L1 adipocytes grown in 12-well plates are washed twice with serum-free DMEM and incubated with 1 mL of the same medium at 37° C. for 2 h. The cells are washed 3 times with Krebs-Ringer-Hepes (KRP) buffer and incubated with 0.9 mL KRP buffer at 37° C. for 30 min. […] Glucose uptake is initiated by addition of 0.1 mL KRP buffer and 37 MBq/L 2-deoxy-D-[^3H] glucose and 1 mmol/L glucose as final concentrations. After 10 min, glucose uptake is terminated by washing the cells 3 times with cold PBS. The cells are lysed with 0.7 mL of 1% Triton X-100 at 37° C. for 20 min. The radioactivity retained by the cell lysates is determined by a scintillation counter. The dosage that induces the maximal glucose uptake can be selected among the experimental samples.\n3T3-L1 adipocytes were purchased from ATCC, and maintained and passed as preadipocytes in DMEM supplemented with 10% calf serum in a 37° C. incubator with 10% CO2 as required by the cells. The cells were induced to differentiate into adipocytes by addition of MDI induction cocktail as described in Liu, F., Kim, J., Li, Y., Liu, X., Li, J. & Chen, X. (2001) An extract of Lagerstroemia speciosa L. has insulin-like glucose uptake-stimulatory and adipocyte differentiation-inhibitory activities in 3T3-L1 cells. J. Nutrition 131:2242-224, which is specifically incorporated herein by reference. Varying amounts of α-PGG and β-PGG were then added to the medium and the amount of glucose taken up by control and treated cells determined using a standard glucose uptake assay, as described in Liu et al. As shown in FIG. 2A chemically synthesized and plant derived β-PGG have similar glucose transport stimulatory (GTS). The GTS activity of α-PGG is consistently 10-20% higher than that of β-PGG (FIG. 2).\nConfluent 3T3-L1 adipocytes grown in 12-well plates were washed twice with serum-free DMEM and incubated with 1 mL of the same medium at 37° C. for 2 h. The cells were washed 3 times with Krebs-Ringer-Hepes (KRP) buffer and incubated with 0.9 mL KRP buffer at 37° C. for 30 min. Compounds listed in the table below were then added at 20-40 μM (final concentration?) and adipocytes were incubated at 37° C. for 15 min. Glucose uptake was initiated by addition of 0.1 mL KRP buffer and 37 MBq/L 2-deoxy-D-[3H] glucose and 1 mmol/L glucose as final concentrations. After 10 min, glucose uptake was terminated by washing the cells 3 times with cold PBS. The cells were lysed with 0.7 mL of 1% Triton X-100 at 37° C. for 20 min. The radioactivity retained by the cell lysates is determined by a scintillation counter."}, "[6]": {"tested_on": "ob/ob mice", "test": "Glucose tolerance test in ob/ob mice", "format": "in vivo", "experimental": "as §2\nFIG. 12. PGG protects ob/ob mice from hyperglycemia immediately after glucose challenge and hypoglycemia several days after the challenge. At various time points after the glucose challenge, blood glucose levels were measured in tail blood.\nTo determine if α-PGG is also effective in improving glucose tolerance in diabetic and obese mice, a glucose tolerance test was performed using ob/ob mice. Glucose or glucose plus α-PGG were orally delivered into male ob/ob mice, and blood glucose levels were measured at various times post glucose/PGG administration.\nA single high does of glucose in ob/ob mice can be fatal, either because of the very high levels of blood glucose levels […] after the glucose challenge or because of the abnormally low glucose levels 2-3 days after the glucose challenge. […] Although the protection mechanisms are unknown at this time, it is very likely that α-PGG protected the ob/ob mice not only by its GTS activity, but also some other activity such as AD-related activity."}, "[7]": {"conditions": "in the presence of MDI, FIG. 10"}}}
{"molecule": "O=C(OC[C@H]1O[C@H](OC(=O)c2cc(O)c(O)c(O)c2)[C@H](OC(=O)c2cc(O)c(O)c(O)c2)[C@@H](OC(=O)c2cc(O)c(O)c(O)c2)[C@@H]1OC(=O)c1cc(O)c(O)c(O)c1)c1cc(O)c(O)c(O)c1", "note": "[α-PGG, 1,2,3,4,6-penta-O-galloyl-α-D-glucose]", "values": [{"measurement": "plasma insulin levels versus water", "setting": "[1]", "result": "significantly lower plasma insulin levels"}, {"measurement": "differentiation of preadipocytes treated with MDI plus compound", "setting": "[2]", "result": "abolishes the differentiation"}, {"measurement": "reduction of the blood glucose level", "setting": "[3]", "result": "15-20%"}, {"measurement": "cell-killing compared to MDI induced cells", "setting": "[4]; data not shown", "result": "without significantly increased cell-killing"}, {"measurement": "first round of clonal expansion", "setting": "[4]; [7]", "result": "not inhibited"}, {"measurement": "second round of clonal expansion", "setting": "[4]; [7]", "result": "partially inhibited"}, {"measurement": "GTS activity higher than that of β-PGG", "setting": "[5]", "result": "10-20%"}, {"measurement": "protection from extremely low glucose levels after glucose challenge", "setting": "[6]; 2-5 days after challenge, FIG. 12", "result": "protected these mice from suffering extremely low glucose levels"}, {"measurement": "time after treatment at which improved blood glucose levels could still be observed", "setting": "[6]; ob/ob mice, oral", "result": "≥ 24", "unit": "h"}, {"measurement": "blood glucose levels compared to glucose alone", "setting": "[6]; oral glucose plus α-PGG, P<0.001, FIG. 11B", "result": "significantly lower blood glucose levels"}]}
